The results in this text go back to ChEMBL document CHEMBL5465560, “Selectivity Literature for EUbOPEN Chemogenomic Library” (2024).

Some results are limits rather than exact numbers.

Test [1] deals with B1 bradykinin receptor (Homo sapiens) (UniProt P46663). As to the kind of experiment: Selectivity interaction (Eurofins CEREP Diversity Profile (receptors and ion channels)) EUB0000279b BDKRB1. The following applies: at 10 µM.
For test [2], the target named is Serine/threonine-protein kinase 26 (Homo sapiens, UniProt Q9P289). The following applies: at 10 µM.
Test [3] addresses Serine/threonine-protein kinase PAK 1 (Homo sapiens) (UniProt Q13153). Nature of the test: Selectivity interaction (KinomeScan (DiscoverX)) EUB0000607a PAK1. The following applies: at 10 µM.
The target of test [4] is T1, Ephrin type-B receptor 6 (Homo sapiens) (UniProt O15197).
T1 sequence (whole entry): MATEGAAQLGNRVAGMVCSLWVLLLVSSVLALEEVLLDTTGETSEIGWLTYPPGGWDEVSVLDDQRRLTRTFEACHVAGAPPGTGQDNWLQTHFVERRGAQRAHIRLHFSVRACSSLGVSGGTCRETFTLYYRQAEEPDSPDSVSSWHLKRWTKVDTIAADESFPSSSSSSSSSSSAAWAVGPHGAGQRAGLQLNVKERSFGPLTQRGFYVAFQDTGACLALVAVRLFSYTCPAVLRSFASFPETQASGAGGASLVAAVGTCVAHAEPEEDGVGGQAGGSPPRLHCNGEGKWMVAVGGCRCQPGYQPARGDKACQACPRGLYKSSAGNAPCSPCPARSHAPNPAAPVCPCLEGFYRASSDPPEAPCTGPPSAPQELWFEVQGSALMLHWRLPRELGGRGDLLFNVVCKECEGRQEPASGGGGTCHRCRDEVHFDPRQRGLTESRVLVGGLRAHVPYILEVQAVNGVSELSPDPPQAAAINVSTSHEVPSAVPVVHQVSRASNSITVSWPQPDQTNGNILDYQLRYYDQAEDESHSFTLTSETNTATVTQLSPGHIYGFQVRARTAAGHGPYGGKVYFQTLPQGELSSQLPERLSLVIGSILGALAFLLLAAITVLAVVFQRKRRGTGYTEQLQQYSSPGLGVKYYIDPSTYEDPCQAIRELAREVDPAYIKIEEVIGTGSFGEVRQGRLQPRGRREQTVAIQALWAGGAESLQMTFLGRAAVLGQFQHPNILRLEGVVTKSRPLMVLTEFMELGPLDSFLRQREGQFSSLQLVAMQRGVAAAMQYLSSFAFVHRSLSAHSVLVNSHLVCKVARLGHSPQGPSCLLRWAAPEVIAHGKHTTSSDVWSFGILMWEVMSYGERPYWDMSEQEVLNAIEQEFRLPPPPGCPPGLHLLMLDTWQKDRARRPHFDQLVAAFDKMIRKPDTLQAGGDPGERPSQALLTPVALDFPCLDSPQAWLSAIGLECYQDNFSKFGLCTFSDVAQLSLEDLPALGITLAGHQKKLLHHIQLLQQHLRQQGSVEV
As to the kind of experiment: Selectivity interaction (KinomeScan (DiscoverX)) EUB0000045b EPHB6.

The target in test [5] is MAP kinase-activated protein kinase 2 (Homo sapiens, UniProt P49137). Nature of the test: Selectivity interaction (Kinase panel (literature)) EUB0001199aCl MAPKAPK2. The following applies: at 1 µM.
For test [6], the target named is Histone-lysine N-methyltransferase 2A (Homo sapiens) (UniProt Q03164). As to the kind of experiment: Selectivity interaction (Transferase panel (protein, RNA, and DNA methyltransferases. and EP300 (acetyltransferase))) EUB0000270b MLL.
Histone-lysine N-methyltransferase 2A (Homo sapiens), sequence (Q03164 1-2718 limits assumed): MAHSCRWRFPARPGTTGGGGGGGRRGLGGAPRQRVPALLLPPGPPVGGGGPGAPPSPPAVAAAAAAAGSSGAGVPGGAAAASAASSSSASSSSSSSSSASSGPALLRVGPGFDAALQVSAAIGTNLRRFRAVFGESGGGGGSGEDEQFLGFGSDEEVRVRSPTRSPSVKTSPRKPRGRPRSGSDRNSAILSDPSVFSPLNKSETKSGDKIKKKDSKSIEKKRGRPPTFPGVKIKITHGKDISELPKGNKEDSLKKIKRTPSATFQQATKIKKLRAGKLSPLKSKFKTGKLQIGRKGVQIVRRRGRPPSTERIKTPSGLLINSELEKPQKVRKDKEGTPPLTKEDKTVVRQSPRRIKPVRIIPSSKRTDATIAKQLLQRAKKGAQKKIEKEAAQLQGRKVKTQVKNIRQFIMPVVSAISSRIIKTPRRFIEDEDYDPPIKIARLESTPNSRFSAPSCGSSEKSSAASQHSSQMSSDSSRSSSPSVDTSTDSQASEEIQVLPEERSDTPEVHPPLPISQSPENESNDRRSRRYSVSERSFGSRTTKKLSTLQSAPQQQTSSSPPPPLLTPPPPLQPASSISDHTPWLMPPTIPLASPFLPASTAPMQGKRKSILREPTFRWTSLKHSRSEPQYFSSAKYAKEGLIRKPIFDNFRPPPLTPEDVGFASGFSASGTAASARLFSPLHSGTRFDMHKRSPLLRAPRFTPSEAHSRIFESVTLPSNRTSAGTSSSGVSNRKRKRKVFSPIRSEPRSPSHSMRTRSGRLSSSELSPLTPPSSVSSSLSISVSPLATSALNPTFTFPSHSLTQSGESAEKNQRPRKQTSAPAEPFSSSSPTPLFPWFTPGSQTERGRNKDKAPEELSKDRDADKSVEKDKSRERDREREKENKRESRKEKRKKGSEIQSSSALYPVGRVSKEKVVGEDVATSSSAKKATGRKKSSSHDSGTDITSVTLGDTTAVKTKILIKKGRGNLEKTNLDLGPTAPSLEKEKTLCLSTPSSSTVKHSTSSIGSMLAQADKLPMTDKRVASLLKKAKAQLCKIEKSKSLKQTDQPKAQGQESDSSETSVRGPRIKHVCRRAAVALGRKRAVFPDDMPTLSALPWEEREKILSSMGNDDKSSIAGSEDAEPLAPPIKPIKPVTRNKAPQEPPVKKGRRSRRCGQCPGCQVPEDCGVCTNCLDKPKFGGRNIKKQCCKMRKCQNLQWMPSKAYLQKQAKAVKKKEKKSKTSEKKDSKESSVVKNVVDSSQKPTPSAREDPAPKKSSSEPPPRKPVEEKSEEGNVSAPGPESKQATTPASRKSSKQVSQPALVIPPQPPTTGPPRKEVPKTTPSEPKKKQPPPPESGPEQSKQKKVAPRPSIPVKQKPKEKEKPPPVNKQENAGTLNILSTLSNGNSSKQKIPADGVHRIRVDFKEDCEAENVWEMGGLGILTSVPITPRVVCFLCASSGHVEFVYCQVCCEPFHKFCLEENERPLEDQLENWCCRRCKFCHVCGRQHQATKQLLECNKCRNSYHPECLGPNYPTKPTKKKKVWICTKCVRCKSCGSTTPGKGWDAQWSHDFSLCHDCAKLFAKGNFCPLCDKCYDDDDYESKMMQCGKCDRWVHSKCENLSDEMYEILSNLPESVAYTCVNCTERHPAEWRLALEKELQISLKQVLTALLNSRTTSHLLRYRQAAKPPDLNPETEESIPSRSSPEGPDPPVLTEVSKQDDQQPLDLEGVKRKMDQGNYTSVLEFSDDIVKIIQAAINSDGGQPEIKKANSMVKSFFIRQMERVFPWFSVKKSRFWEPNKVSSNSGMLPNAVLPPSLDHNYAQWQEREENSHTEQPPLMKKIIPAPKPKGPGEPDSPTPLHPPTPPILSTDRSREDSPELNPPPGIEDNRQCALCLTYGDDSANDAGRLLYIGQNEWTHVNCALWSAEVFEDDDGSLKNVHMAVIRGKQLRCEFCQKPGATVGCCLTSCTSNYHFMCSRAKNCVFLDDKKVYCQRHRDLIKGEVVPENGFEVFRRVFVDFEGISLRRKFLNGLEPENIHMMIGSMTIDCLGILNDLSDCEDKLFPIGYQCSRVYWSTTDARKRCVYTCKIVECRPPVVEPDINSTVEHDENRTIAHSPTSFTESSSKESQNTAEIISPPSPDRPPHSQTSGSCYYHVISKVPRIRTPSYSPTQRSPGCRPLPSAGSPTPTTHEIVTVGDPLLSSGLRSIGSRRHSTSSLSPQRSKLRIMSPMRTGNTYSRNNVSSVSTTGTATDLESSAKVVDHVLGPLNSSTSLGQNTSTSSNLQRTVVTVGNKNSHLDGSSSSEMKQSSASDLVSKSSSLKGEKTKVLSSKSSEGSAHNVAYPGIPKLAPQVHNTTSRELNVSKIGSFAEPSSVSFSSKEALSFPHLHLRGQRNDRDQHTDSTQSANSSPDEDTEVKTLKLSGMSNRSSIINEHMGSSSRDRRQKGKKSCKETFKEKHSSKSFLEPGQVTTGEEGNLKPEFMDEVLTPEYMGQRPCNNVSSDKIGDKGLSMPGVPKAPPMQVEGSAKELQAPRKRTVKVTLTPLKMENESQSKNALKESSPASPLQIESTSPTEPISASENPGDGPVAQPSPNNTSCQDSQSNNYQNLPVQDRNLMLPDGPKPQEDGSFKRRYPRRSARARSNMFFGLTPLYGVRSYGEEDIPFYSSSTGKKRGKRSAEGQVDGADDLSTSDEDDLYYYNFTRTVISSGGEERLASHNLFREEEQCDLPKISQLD
Histone-lysine N-methyltransferase 2A (Homo sapiens), sequence (Q03164 2719-3969 limits assumed): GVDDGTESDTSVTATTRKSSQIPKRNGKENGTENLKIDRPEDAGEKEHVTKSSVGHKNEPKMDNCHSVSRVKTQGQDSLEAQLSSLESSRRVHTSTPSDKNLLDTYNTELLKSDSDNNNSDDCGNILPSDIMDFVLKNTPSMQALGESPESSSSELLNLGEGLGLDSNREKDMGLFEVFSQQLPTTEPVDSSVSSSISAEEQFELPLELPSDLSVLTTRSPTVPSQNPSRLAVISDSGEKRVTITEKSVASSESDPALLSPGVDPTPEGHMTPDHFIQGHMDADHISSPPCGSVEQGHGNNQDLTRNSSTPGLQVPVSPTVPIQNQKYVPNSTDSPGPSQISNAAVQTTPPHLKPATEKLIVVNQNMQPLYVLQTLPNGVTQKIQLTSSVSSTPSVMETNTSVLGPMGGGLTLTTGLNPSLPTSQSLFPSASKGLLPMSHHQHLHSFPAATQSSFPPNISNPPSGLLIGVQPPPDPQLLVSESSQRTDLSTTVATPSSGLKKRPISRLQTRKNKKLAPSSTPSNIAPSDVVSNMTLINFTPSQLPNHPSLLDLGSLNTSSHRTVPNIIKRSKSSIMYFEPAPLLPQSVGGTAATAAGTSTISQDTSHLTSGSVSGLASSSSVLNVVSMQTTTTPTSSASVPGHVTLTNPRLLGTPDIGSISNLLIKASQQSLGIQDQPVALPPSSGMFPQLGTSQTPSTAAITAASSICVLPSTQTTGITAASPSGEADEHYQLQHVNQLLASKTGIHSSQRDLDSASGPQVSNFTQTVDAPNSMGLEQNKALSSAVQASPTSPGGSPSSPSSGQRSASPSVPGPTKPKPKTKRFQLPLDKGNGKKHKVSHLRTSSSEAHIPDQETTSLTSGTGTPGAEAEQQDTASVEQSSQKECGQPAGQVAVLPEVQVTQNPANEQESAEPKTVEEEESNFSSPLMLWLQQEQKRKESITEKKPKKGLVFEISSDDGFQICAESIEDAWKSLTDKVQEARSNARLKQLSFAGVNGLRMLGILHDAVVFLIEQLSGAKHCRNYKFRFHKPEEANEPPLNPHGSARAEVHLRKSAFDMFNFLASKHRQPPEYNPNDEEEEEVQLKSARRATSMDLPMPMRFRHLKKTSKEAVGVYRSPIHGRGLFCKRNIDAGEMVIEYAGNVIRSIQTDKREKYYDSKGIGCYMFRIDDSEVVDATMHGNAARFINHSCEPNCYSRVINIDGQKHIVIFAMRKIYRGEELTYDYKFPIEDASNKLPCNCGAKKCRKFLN
Test [7] has as its target Focal adhesion kinase 1 (Homo sapiens, UniProt Q05397). As to the kind of experiment: Selectivity interaction (KinomeScan (DiscoverX)) EUB0000618a PTK2. Particulars: at 10 µM.
For test [8], the target named is T2, Serine/threonine-protein kinase ULK2 (Homo sapiens) (UniProt Q8IYT8).
T2 sequence (whole entry): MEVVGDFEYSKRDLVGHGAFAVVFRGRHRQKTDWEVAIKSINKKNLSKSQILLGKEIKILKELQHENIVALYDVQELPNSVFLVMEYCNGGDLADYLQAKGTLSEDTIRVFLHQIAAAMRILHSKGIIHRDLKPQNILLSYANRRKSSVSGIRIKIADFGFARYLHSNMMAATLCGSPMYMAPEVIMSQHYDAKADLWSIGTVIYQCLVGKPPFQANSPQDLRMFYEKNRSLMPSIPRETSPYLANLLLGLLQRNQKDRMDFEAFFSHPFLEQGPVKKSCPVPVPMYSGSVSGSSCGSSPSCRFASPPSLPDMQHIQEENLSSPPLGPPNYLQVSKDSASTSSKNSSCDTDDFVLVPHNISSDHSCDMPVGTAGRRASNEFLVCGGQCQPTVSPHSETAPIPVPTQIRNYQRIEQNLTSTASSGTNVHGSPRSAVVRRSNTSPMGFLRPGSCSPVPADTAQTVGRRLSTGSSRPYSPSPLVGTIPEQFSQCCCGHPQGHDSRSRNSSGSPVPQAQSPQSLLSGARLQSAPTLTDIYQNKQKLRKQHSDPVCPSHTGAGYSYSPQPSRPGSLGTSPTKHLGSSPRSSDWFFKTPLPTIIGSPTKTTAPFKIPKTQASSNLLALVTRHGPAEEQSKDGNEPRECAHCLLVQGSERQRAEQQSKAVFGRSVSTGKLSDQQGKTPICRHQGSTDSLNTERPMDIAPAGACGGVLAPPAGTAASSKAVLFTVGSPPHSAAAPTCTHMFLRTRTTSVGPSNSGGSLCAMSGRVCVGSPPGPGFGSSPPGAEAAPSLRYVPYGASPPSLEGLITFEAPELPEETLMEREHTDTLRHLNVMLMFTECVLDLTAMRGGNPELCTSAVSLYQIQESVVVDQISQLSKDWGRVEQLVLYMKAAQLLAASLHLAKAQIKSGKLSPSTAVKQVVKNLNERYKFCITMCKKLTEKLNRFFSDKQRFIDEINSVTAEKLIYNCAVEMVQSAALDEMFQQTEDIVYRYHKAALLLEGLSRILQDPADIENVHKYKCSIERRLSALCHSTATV
As to the kind of experiment: Selectivity interaction (KinomeScan (DiscoverX)) EUB0000092b ULK2. Particulars: at 10 µM.

Test [9] addresses D(3) dopamine receptor (Homo sapiens, UniProt P35462). As to the kind of experiment: Selectivity interaction (GPCR panel (PDSP screen)) EUB0001079a DRD3. The following applies: at 10 µM.
The target of test [10] is Serine/threonine-protein kinase Nek7 (Homo sapiens) (UniProt Q8TDX7). As to the kind of experiment: Selectivity interaction (Kinase panel (KiNativ target engagement assay in Jurkat cells)) EUB0001635a NEK7. The format is cell-based. The following applies: Selectivity number of off-targets 0.0, Selectivity number of targets 233.0, Source Knowledge https://www.sciencedirect.com/science/article/pii/S2451945619300674?via%3Dihub, at 1 µM.

D(3) dopamine receptor, sequence (P35462 whole entry): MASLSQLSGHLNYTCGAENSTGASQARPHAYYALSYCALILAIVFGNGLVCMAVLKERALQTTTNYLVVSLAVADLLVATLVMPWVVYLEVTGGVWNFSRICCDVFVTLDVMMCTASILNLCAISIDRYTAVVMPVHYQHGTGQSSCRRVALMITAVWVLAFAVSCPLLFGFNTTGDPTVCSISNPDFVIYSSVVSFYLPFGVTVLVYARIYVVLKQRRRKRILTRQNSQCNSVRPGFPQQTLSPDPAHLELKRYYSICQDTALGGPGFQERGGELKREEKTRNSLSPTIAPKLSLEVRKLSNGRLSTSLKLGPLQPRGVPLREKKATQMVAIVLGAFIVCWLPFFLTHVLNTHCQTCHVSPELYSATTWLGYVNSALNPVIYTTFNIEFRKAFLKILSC
Serine/threonine-protein kinase PAK 1 (Homo sapiens), sequence (Q13153 whole entry): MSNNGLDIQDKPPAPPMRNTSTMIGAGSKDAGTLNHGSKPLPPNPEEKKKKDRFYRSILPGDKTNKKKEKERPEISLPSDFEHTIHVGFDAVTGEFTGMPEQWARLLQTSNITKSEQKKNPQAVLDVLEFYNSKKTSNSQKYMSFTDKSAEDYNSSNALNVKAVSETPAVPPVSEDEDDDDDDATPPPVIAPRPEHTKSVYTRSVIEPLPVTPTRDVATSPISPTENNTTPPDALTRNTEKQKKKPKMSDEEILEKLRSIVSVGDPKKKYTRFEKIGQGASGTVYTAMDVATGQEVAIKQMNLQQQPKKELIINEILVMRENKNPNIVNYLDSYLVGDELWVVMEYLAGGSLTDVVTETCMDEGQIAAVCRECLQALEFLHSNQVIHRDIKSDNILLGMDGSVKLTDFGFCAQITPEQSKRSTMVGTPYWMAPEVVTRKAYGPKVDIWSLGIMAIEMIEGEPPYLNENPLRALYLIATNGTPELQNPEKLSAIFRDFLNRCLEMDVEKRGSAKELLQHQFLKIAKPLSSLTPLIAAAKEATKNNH

In test [1], `CC(=O)c1cc(-c2ccccc2OCC2CC2)c2ncccn12` yielded a % of control of 95%.
`CCN(CC)CCCCNc1ncc2cc(-c3cc(OC)cc(OC)c3)c(NC(=O)NC(C)(C)C)nc2n1` returned a % of control in [2] of 100%.
`CNC(=O)Nc1ccc(-c2nc(N3CC4CCC(C3)O4)c3cnn(C4CCC5(CC4)OCCO5)c3n2)cc1` yielded a % of control in [3] of 100%.
Turning to `C=CC(=O)Nc1cc(-n2c(=O)ccc3cnc4ccc(-c5ccc(NS(C)(=O)=O)cc5)cc4c32)ccc1C`, the % of control turned out to be 90% in test [4] (at 1 µM) and 85% in test [4] (at 10 µM).
As to `CN1Cc2nccc(-c3cn(C)nc3-c3ccc(F)cc3)c2C1=O`, the % of inhibition in [5] came to 3%.
Regarding `Cc1cc(CN)cc(C)c1-c1ncn(C)c1-c1cncn1C`, the % activity in test [6] (at 1 µM) was more than 90%; in test [6] (at 10 µM), more than 80%.
Turning to `O[C@H]1CC[C@H](Nc2ncc3nc(Nc4c(F)cc(F)cc4F)n([C@H]4CCOC4)c3n2)CC1`, the % of control in [7] came out at 100%.
For `CCC(=O)N1CCN(c2ccc(-n3c(=O)ccc4cnc5ccc(-c6cnc7ccccc7c6)cc5c43)cc2C(F)(F)F)CC1`, the % of control in test [8] was 75%.
`Nc1cnc(N2CCc3cc(S(=O)(=O)Nc4c(F)cc(Cl)cc4F)cc(N4CCCC4=O)c32)nc1` [TP-020n]: the % of inhibition in test [9] is -5.02%.
On to `C=CC(=O)Nc1ccc(C(=O)Nc2[nH]nc3c2CN(C(=O)N[C@H](CN(C)C)c2ccccc2)C3(C)C)cc1`, for which the % of engagement in [10] was -12.5%.
